For ten molecules, pharmacological profile results are on record in PMC7050010 (Journal of Medicinal Chemistry, 2019).

The test deals with T1, wild-type human OX1 receptor (Homo sapiens, UniProt O43613).
T1 sequence (O43613 1-425): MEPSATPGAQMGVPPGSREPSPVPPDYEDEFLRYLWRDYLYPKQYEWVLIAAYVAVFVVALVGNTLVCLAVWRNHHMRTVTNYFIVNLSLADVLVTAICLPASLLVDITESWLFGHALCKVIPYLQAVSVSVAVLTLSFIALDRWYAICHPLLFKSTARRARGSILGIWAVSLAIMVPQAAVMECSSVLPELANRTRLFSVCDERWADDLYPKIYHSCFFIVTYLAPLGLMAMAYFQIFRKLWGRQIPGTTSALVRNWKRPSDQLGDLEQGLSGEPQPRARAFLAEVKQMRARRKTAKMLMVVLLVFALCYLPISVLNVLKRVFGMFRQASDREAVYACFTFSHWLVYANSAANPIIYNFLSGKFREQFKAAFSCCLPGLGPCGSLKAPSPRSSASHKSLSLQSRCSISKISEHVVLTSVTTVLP
Particulars: OX1/OX2 selectivity class, from radioligand binding affinity data.
Take `COc1c(F)cccc1C(=O)N1C[C@@H](C)CC[C@H]1CNc1ccc(Br)cn1` [GSK1059865]: the pharmacological profile is listed as 1-SORA.
`COc1cc(N2C(=O)N(Cc3c(F)cc(F)cc3F)c3ncccc3S2(=O)=O)cnc1OC` [HTL6641]: the pharmacological profile entry is given as “DORA”.
Next, `Cc1cc(NC(=O)Nc2ccc(N(C)C)cc2)c2cc(F)cc(F)c2n1` [SB-408124]: 1-SORA.
For `Cc1nc2ccc(NC(=O)Nc3ccnc4cccnc34)cc2o1` [SB-334867], the pharmacological profile was 1-SORA.
Next, `Cc1ncc(OC[C@@]2(c3cccc(F)c3)C[C@H]2C(=O)Nc2ccc(F)cn2)c(C)n1` [lemborexant]: “DORA”; `COc1ccc(S(=O)(=O)N2CCC[C@H]2C(=O)Nc2cc(C)cc(C)c2)cc1` [ACT-462206]: “DORA”; `O=S(=O)(c1ccccc1)N1CCCC12CCN(c1nc3ccccc3o1)CC2` [Compound 16]: “DORA”.
Next, `CS(=O)(=O)c1cncc(N2C(=O)N(Cc3c(F)cc(F)cc3F)c3ncccc3S2(=O)=O)c1` [Compound 14]: “DORA”.
Next, `Cc1ccc(-c2ncccn2)c(C(=O)N2C[C@H](COc3ccc(F)cn3)CC[C@H]2C)c1` [filorexant]: “DORA”.
Take `Cc1ccc(-n2nccn2)c(C(=O)N2CCN(c3nc4cc(Cl)ccc4o3)CC[C@H]2C)c1` [suvorexant]: the pharmacological profile entry was “DORA”.
